Test results reported in article PMC10857906, “PROTAC-mediated NR4A1 degradation as a novel strategy for cancer immunotherapy” (The Journal of Experimental Medicine, 2024).

Tests used:
[1] = Toxicity testing in non-tumor-bearing mice; assay type: in vivo, C57BL/6J mice
Description: (§1) For syngeneic tumor models, 5 × 10^5 cells MC38, Yumm1.7, and Yummer1.7, 1 × 10^5 cells of B16F10 were resuspended in PBS and implanted into 7–9-wk-old mice subcutaneously. For the tumor inhibition experiment, mice were treated with 1.8 mg/kg NR-V04 or 0.75 mg/kg celastrol by i.p. injection twice weekly. For the immune profile experiment, once tumors reached 0.5 cm in diameter, mice were treated with 1.8 mg/kg NR-V04 by i.p. injection twice weekly. For the toxicity experiment, male and female non-tumor-bearing mice were treated with 2 mg/kg NR-V04 for two doses in the first week and 5 mg/kg for another two doses in the second week. Blood samples were taken from the submandibular (facial) vein before each treatment and 42 days later for hematological analysis, and body weight was measured twice per week up to day 42. Mice were euthanized in accordance with the IACUC protocol once the largest tumors reached 2 cm in diameter, and tissues were collected for further analysis.
Mouse blood was prepared in microcentrifuge tubes containing PBS with 10 mM EDTA. Blood indices were analyzed using an automated hematology analyzer (Element HT5; Heska).
For H&E staining, mouse tissues were fixed in 10% formalin (SF98-4; Thermo Fisher Scientific) processed in the University of Florida Molecular Pathology Core. H&E staining was conducted using standard procedures. The sections were hydrated through xylene and a series of ethanol, followed by staining with H&E on slides.

MC38 tumors = assay: MC38 colon cancer syngeneic tumor model; assay type: in vivo, mouse
Description: (§2) 7–9-wk-old C57BL/6J, B6.129S2-Ighm^tm1Cgn/J (002288), B6.129S2-Nr4a1^tm1Jmi/J (NR4A1^−/−, 006187), and NOD-SCID interleukin-2 receptor gamma null (NSG) mice were purchased from Jackson Laboratories. For all studies involving NR-V04 and celastrol, the compounds were formulated in 50% phosal PG, 45% miglyol 810N, and 5% polysorbate 80 and administered via i.p. injection.
as §1

Yummer1.7 melanoma = Yummer1.7 melanoma syngeneic tumor model; assay type: in vivo, mouse
Description: as §2
as §1, with “For the toxicity experiment, male and female non-tumor-bearing mice were treated with 2 mg/kg NR-V04 for two doses in the first week and 5 mg/kg for another two doses in the second week.” left out, “Mice were euthanized in accordance with the IACUC protocol once the largest tumors reached 2 cm in diameter, and tissues were collected for further analysis.” left out
We administered 100 μg of anti-mouse CD8α antibody (Clone: 53-6.7; Bio X Cell) or rat IgG2a isotype control to each mouse every 4 days via i.p. injection. […] Toward the end of the experiment, we collected blood samples from mice in both treatment and control groups and assessed the efficiency of CD8^+ T cell depletion using flow cytometry analysis.

NR4A1 and VHL = NR4A1 and VHL (Homo sapiens, UniProt P22736+P40337); assay: Co-IP of Flag-NR4A1 and VHL in HEK293T cells; assay type: cell-based; details: 500 nM, 16 h, 0.5 μM MG132
Description: HEK293T cells were transfected with 3 µg Flag-NR4A1 (HG17699-CF; SinoBiological) for 36 h in Opti-MEM (31985062; Thermo Fisher Scientific) medium with 10 µl GeneTran III reagent (GT2211; Biomiga).
HEK293T cells were transfected with Flag-NR4A1 for 36 h, following with treatment of either DMSO or 500 nM […] for 16 h, together with 500 nM MG132 included to prevent protein degradation. Proteins were extracted using RIPA lysis buffer without SDS (150 mM NaCl, 5 mM EDTA, 50 mM Tris, pH 8.0, 0.5% sodium deoxycholate, and 1% NP-40) supplemented with 1% protease inhibitor cocktail (C0001; TargetMol). IP was performed using Anti-FLAG M2 Magnetic Beads (M8823; Sigma-Aldrich) as per the manufacturer’s protocol. The immunoprecipitated samples were eluted with 2× SDS sample buffer and boiled for 5 min at 95°C. The samples were then subjected to denaturation, SDS-PAGE, and immunoblotting analysis.

NR4A1 = molecular target: T1, NR4A1 (Mus musculus, UniProt P12813); assay: NR4A1 degradation in SM1 and SW1 mouse melanoma cell lines (immunoblotting); assay type: cell-based; details: 16 h
T1 construct: from tissue; host or cells: MC38 tumours in mice (tumour lysates)
Description: Human melanoma cell lines: A375 and CHL-1 (gifts from Dr. D. Zhou, the University of Texas Health Science Center, San Antonio, TX, USA) were cultured in Dulbecco’s Modified Eagles’ Medium (DMEM, D5796; Sigma-Aldrich), WM164 and M229 (gifts from Dr. K.S.M. Smalley’s lab) were cultured in RPMI-1640 (R8758; Sigma-Aldrich). Mouse melanoma cell lines: B16F10 (CRL-6475, ATCC) was cultured in DMEM, SW1 and SM1 (gift from Dr. K.S.M. Smalley, Moffitt Cancer Center, Tampa, FL, USA) were cultured in RPMI. Human epithelial kidney cell lines: HEK293T (293T, CRL-3216; ATCC) and Vhl-KO-293T (gift from Dr. D. Zhou, the University of Texas Health Science Center, San Antonio, TX, USA) were cultured in DMEM. Mouse colon cancer cell lines: MC38 (ENH204-FP; Kerafast Inc.) was cultured in DMEM supplemented with 1 mM glutamine, […] non-essential amino acids (11140050; Thermo Fisher Scientific), 1 mM sodium pyruvate (11360070; Thermo Fisher Scientific), and 10 mM HEPES (15630080; Thermo Fisher Scientific). […]
Samples were lysed using radioimmunoprecipitation assay buffer (RIPA) lysis buffer (150 mM NaCl, 5 mM EDTA, 50 mM Tris pH 8.0, 0.5% sodium deoxycholate, 1% NP-40, 0.1% SDS) supplemented with 1 mM dithiothreitol and protease inhibitors. The lysates were separated by SDS-PAGE and analyzed using standard western blotting procedures ([Khan et al., 2019]). […]

T1 sequence (P12813 whole entry): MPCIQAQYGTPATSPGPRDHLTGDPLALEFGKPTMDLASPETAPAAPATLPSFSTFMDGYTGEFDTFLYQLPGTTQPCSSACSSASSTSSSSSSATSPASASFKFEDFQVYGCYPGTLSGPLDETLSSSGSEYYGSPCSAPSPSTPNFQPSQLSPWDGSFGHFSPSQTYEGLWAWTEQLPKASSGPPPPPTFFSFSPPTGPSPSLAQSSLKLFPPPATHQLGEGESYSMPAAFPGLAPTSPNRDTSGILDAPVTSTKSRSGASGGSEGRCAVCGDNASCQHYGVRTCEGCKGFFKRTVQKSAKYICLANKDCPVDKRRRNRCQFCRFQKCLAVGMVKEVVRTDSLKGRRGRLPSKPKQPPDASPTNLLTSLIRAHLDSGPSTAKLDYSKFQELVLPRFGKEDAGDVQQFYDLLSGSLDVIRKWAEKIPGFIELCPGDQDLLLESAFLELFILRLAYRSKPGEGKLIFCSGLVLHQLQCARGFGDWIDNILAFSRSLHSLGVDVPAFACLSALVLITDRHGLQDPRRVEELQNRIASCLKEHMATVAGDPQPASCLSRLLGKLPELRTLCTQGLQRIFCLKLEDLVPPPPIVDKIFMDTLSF
Chain of NR4A1 and VHL (P22736 whole entry): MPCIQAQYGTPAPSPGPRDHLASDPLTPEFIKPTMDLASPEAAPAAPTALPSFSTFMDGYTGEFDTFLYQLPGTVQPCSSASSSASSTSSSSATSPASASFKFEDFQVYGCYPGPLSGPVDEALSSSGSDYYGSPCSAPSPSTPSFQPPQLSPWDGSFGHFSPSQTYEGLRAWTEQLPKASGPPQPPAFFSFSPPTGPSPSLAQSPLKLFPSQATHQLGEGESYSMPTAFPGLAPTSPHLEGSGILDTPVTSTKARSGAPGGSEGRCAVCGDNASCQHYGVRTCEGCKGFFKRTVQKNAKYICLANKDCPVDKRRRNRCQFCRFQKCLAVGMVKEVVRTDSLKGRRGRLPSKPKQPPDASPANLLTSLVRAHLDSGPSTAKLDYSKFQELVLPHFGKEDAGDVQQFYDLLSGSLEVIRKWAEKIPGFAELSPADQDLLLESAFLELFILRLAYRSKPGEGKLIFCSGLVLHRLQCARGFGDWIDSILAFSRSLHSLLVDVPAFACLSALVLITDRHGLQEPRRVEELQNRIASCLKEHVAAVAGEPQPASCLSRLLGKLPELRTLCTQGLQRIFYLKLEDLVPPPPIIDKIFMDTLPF
Chain of NR4A1 and VHL (P40337 whole entry): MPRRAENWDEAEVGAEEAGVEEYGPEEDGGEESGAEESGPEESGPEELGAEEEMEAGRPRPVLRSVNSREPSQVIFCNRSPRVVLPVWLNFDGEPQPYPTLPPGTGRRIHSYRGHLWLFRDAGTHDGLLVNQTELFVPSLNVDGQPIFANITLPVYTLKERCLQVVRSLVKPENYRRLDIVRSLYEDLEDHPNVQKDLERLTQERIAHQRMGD
Chain of NR4A1 and VHL (Q15369 whole entry partner): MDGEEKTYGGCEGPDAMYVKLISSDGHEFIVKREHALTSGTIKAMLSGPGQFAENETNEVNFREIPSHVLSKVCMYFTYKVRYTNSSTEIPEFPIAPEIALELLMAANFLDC
Chain of NR4A1 and VHL (Q15370 whole entry partner): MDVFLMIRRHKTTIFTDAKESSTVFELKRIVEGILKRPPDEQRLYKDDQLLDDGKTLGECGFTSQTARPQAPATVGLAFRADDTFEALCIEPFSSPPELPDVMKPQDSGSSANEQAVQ

CC1=C(O)C(=O)C=C2C1=CC=C1[C@@]2(C)CC[C@@]2(C)[C@@H]3C[C@](C)(C(=O)NCCOCCOCCOCCOCC(=O)N[C@H](C(=O)N4C[C@H](O)C[C@H]4C(=O)N[C@@H](C)c4ccc(-c5scnc5C)cc4)C(C)(C)C)CC[C@]3(C)CC[C@]12C [NR-V04]
histology (H&E) of kidney, liver and small intestine ([1]; male and female mice, day 42): did not induce tissue damage
body weight ([1]; male and female mice, two doses of 2 mg/kg and two doses of 5 mg/kg over 2 wk, 42 days): no significant change in body weight
hematological parameters (complete blood counts) ([1]; two doses of 2 mg/kg and two doses of 5 mg/kg, day 0, 7, 14, 42): no significant changes in hematological parameters
tumor growth (MC38 tumors; MC38 in NSG mice, 1.8 mg/kg i.p.): failed to inhibit tumor growth
tumor growth (MC38 tumors; MC38 in WT mice, 1.8 mg/kg NR-V04 or 0.75 mg/kg celastrol i.p. twice a week from day 7): effectively inhibited tumor growth
CD8^+ Texh cells in vivo (MC38 tumors; MC38 tumors): did not observe a significant decrease in CD8^+ Texh cells
tumor response with CD8^+ T cell depletion (Yummer1.7 melanoma; Yummer1.7, anti-CD8 antibody 100 µg/mouse, NR-V04 from day 7): desensitized tumors to NR-V04 treatment
tumor growth (Yummer1.7 melanoma; Yummer1.7 in WT mice, 1.8 mg/kg i.p. twice a week from day 7): effectively inhibited tumor growth
Co-IP complex formation (NR4A1 and VHL): complex formation between NR4A1 and VHL
NR4A1 protein level (NR4A1; SM1 mouse melanoma cells): reduced NR4A1 protein level
NR4A1 protein level (NR4A1; SW1 mouse melanoma cells): reduced NR4A1 protein level
